This is an account of results in patent publication US20140323418A1, “SELECTIVE KINASE INHIBITORS” (PORTOLA PHARMACEUTICALS, INC., priority 2011, published 2014).

The experiment addresses T1, full length active recombinant SYK enzyme (Homo sapiens, UniProt P43405).
T1 construct: full length active recombinant SYK enzyme (Millipore, Calif.); purchased Millipore
In words: Inhibition of Syk tyrosine phosphorylation activity (LANCE TR-FRET kinase assay). The class given is biochemical. The settings on record: 1 nM SYK, 550 nM substrate, 100 μM ATP, 1 hour room temperature.
A word on the IC50: it is the concentration that inhibits the measured activity by half. For `CC[C@@H](Nc1ncc(C(N)=O)c(Nc2cc(C)ns2)n1)C(N)=O` [Example 65, (R)-2-((1-amino-1-oxobutan-2-yl)amino)-4-((3-methylisothiazol-5-yl)amino)pyrimidine-5-carboxamide], the IC50 is 10 to 100 nM.
Consider `C=C1C[C@@H](Nc2ncc(C(N)=O)c(Nc3cccc(-n4nccn4)c3)n2)CN1` [Example 226], for which the IC50 lay in the range of 100 to 1000 nM.
As for `NC(=O)c1cnc(N[C@@H]2CCCC[C@@H]2N)nc1Nc1cncc(-n2cccn2)c1` [Example 48, 4-((5-(1H-pyrazol-1-yl)pyridin-3-yl)amino)-2-(((1R,2S)-2-aminocyclohexyl)amino)pyrimidine-5-carboxamide], the figure is 10 to 100 nM; as for `NC(=O)c1cnc(N[C@H]2CCCNC2)nc1Nc1cnc2ccccc2c1` [Example 215, (S)-2-(piperidin-3-ylamino)-4-(quinolin-3-ylamino)pyrimidine-5-carboxamide], 100 to 1000 nM.
As for `NC(=O)c1cnc(NC[C@@H](N)CC(F)F)nc1Nc1cccc(-c2ncccn2)c1` [Example 95, (S)-2-(2-amino-4,4-difluorobutylamino)-4-(3-(pyrimidin-2-yl)phenylamino)pyrimidine-5-carboxamide], the figure is 100 to 1000 nM; as for `CCC[C@@H](Nc1ncc(C(N)=O)c(Nc2cccc(OC)c2)n1)C(N)=O` [Example 61, (R)-2-((1-amino-1-oxopentan-2-yl)amino)-4-((3-methoxyphenyl)amino)pyrimidine-5-carboxamide], 100 to 1000 nM.
Consider `COc1cncc(Nc2nc(N[C@@H]3CCCC[C@@H]3N)ncc2C(N)=O)c1` [Example 47, 2-(((1R,2S)-2-aminocyclohexyl)amino)-4-((5-methoxypyridin-3-yl)amino)pyrimidine-5-carboxamide], for which the IC50 lay within 10 to 100 nM.
As for `Cc1nsc(Nc2nc(N[C@@H]3CCCC[C@@H]3N)ncc2C(N)=O)c1Cl` [Example 232, 2-(((1R,2S)-2-aminocyclohexyl)amino)-4-((4-chloro-3-methylisothiazol-5-yl)amino)pyrimidine-5-carboxamide], the figure is 10 to 100 nM; as for `Cc1cc2c(Nc3nc(NC[C@@H](N)CC(F)F)ncc3C(N)=O)cccc2n1C` [Example 87, (S)-2-(2-amino-4,4-difluorobutylamino)-4-(1,2-dimethyl-1H-indol-4-ylamino)pyrimidine-5-carboxamide], 10 to 100 nM.
The value for `C[C@@H](Nc1ncc(C(N)=O)c(Nc2cccc3c2ccn3C)n1)C1CC1` [Example 110, (R)-2-(1-cyclopropylethylamino)-4-(1-methyl-1H-indol-4-ylamino)pyrimidine-5-carboxamide] was 100 to 1000 nM; that for `NC(=O)c1cnc(N[C@@H]2CCN(C=O)C2)nc1Nc1cccc(-n2nccn2)c1` [Example 228] was more than 1000 nM.
The value for `CC[C@@H](Nc1ncc(C(N)=O)c(Nc2ccc(-c3cnns3)cc2)n1)C(N)=O` [Example 59, (R)-4-((4-(1,2,3-thiadiazol-5-yl)phenyl)amino)-2-((1-amino-1-oxobutan-2-yl)amino)pyrimidine-5-carboxamide] was 10 to 100 nM; that for `NC(=O)c1cnc(N[C@H](c2ccccc2)C2(N)CC2)nc1Nc1cccc(-c2ncccn2)c1` [Example 150, (R)-2-(1-(1-aminocyclopropyl)(phenyl)methylamino)-4-(3-(pyrimidin-2-yl)phenylamino)pyrimidine-5-carboxamide] was 10 to 100 nM.
Take `CC[C@@H](Nc1ncc(C(N)=O)c(Nc2cccc(OC)c2)n1)C(N)=O` [Example 60, (R)-2-((1-amino-1-oxobutan-2-yl)amino)-4-((3-methoxyphenyl)amino)pyrimidine-5-carboxamide]: the IC50 lay within 100 to 1000 nM.
Regarding `NC(=O)c1cnc(N[C@H]2[C@@H](N)CCCC2(F)F)nc1Nc1csc2ncccc12` [Example 36, 2-(((1S,6S)-6-amino-2,2-difluorocyclohexyl)amino)-4-(thieno[2,3-b]pyridin-3-ylamino)pyrimidine-5-carboxamide], the IC50 lay within 10 to 100 nM.
As for `NC(=O)c1cnc(N[C@@H]2CCCC(F)(F)[C@@H]2N)nc1Nc1ccc2ncsc2c1` [Example 29, 2-(((1R,2R)-2-amino-3,3-difluorocyclohexyl)amino)-4-(benzo[d]thiazol-6-ylamino)pyrimidine-5-carboxamide], the figure is 10 to 100 nM.
As for `COc1cccc(Nc2nc(N[C@H](CC(C)C)C(N)=O)ncc2C(N)=O)c1` [Example 62, (R)-2-((1-amino-4-methyl-1-oxopentan-2-yl)amino)-4-((3-methoxyphenyl)amino)pyrimidine-5-carboxamide], the figure is 10 to 100 nM; as for `NC(=O)c1cnc(N[C@H](c2ccccc2)C2(N)CC2)nc1Nc1cccc(-n2nccn2)c1` [Example 149, (R)-4-(3-(2H-1,2,3-triazol-2-yl)phenylamino)-2-(1-(1-aminocyclopropyl)(phenyl)methylamino)pyrimidine-5-carboxamide], 10 to 100 nM; as for `CC(C)[C@@H](Nc1ncc(C(N)=O)c(Nc2cccc(-n3cccn3)c2)n1)C1(N)CC1` [Example 140, (R)-4-(3-(1H-pyrazol-1-yl)phenylamino)-2-(1-(1-aminocyclopropyl)-2-methylpropylamino)pyrimidine-5-carboxamide], 1 to 10 nM.
The value for `Cc1cccc(Nc2nc(N[C@@H]3CC[C@H](N)C3)ncc2C(N)=O)c1` [Example 119, 4-(m-toluidino)-2-((1R,3S)-3-aminocyclopentylamino)pyrimidine-5-carboxamide] was 100 to 1000 nM; that for `Cn1ccc2c(Nc3nc(NC4CCCCC4)ncc3C(N)=O)cccc21` [Example 108, 2-(cyclohexylamino)-4-(1-methyl-1H-indol-4-ylamino)pyrimidine-5-carboxamide] was 100 to 1000 nM.
As to `NC(=O)c1cnc(N[C@@H]2CCC[C@H](F)[C@@H]2N)nc1Nc1cccc(-n2nccn2)c1` (racemic) [Example 174], the IC50 lay within 10 to 100 nM.
The value for `NC(=O)c1cnc(N[C@@H]2CCCC(F)(F)[C@@H]2N)nc1Nc1cccc2c1ccn2CC(F)(F)F` [Example 93, 2-((1R,2R)-2-amino-3,3-difluorocyclohexylamino)-4-(1-(2,2,2-trifluoroethyl)-1H-indol-4-ylamino)pyrimidine-5-carboxamide] was 10 to 100 nM; that for `Cc1cccc(Nc2nc(N[C@@H]3CC[C@@H](C(=O)N4CC(F)(F)C4)C[C@@H]3N)ncc2C(N)=O)c1` (racemic) [Example 192, 2-((1R,2S,4R)-2-amino-4-(3,3-difluoroazetidine-1-carbonyl)cyclohexylamino)-4-(m-tolylamino)pyrimidine-5-carboxamide] was 10 to 100 nM.
The value for `NC(=O)c1cnc(N[C@H](C2CC2)C2(N)CC2)nc1Nc1cc(F)cc(F)c1` [Example 157, (R)-2-(1-(1-aminocyclopropyl)(cyclopropyl)methylamino)-4-(3,5-difluorophenylamino)pyrimidine-5-carboxamide] was 10 to 100 nM.
The value for `NC(=O)c1cnc(N[C@H](C2CC2)C2(N)CC2)nc1Nc1cccc(-n2cccn2)c1` [Example 151, (R)-4-(3-(1H-pyrazol-1-yl)phenylamino)-2-(1-(1-aminocyclopropyl)(cyclopropyl)methylamino)pyrimidine-5-carboxamide] was 1 to 10 nM; that for `CC[C@@H](Nc1nc(Nc2cc(C)ns2)ncc1C(N)=O)C(N)=O` [Example 205] was 100 to 1000 nM.
Consider `Cc1cc(Nc2nc(N[C@@H]3CCCC[C@@H]3N)ncc2C(N)=O)sn1` [Example 49, 2-(((1R,2S)-2-aminocyclohexyl)amino)-4-((3-methylisothiazol-5-yl)amino)pyrimidine-5-carboxamide], for which the IC50 was in the range of 1 to 10 nM.
Turning to `NC(=O)c1cnc(N[C@H](C2CC2)C2(N)CC2)nc1Nc1csc2ncccc12` [Example 171, (R)-2-(1-(1-aminocyclopropyl)(cyclopropyl)methylamino)-4-(thieno[2,3-b]pyridine-3-ylamino)pyrimidine-5-carboxamide], the IC50 fell in the range of 1 to 10 nM.
As for `CC(C)[C@@H](Nc1ncc(C(N)=O)c(Nc2cccc(F)c2)n1)C1(N)CC1` [Example 159, (R)-2-(1-(1-aminocyclopropyl)-2-methylpropylamino)-4-(3-fluorophenylamino)pyrimidine-5-carboxamide], the figure is 1 to 10 nM.
The value for `NC(=O)c1cnc(N[C@H]2CNC(=O)C2)nc1Nc1cccc(-n2nccn2)c1` [Example 230] was 100 to 1000 nM; that for `CNC(=O)[C@@H]1C[C@@H](Nc2ncc(C(N)=O)c(Nc3cccc(C)c3)n2)CN1` [Example 218, 2-(((3R,5S)-5-(methylcarbamoyl)pyrrolidin-3-yl)amino)-4-(m-tolylamino)pyrimidine-5-carboxamide] was more than 1000 nM; that for `NC(=O)c1cnc(NCC2(N)CC2)nc1Nc1cccc(-n2cccn2)c1` [Example 106, 4-(3-(1H-pyrazol-1-yl)phenylamino)-2-((1-aminocyclopropyl)methylamino)pyrimidine-5-carboxamide] was 10 to 100 nM.
The value for `CC(C)[C@@H](Nc1ncc(C(N)=O)c(Nc2cccc(-c3ncccn3)c2)n1)C1(N)CC1` [Example 136, (R)-2-(1-(1-aminocyclopropyl)-2-methylpropylamino)-4-(3-(pyrimidin-2-yl)phenylamino)pyrimidine-5-carboxamide] was 1 to 10 nM; that for `NC(=O)c1cnc(N[C@@H]2CCCC(=O)[C@@H]2N)nc1Nc1cccc(-n2nccn2)c1` (racemic) [Example 165] was 100 to 1000 nM.
As to `Cc1ccc(Nc2nc(NC[C@@H](N)CC(F)F)ncc2C(N)=O)cc1` [Example 83, (S)-4-(p-toluidino)-2-(2-amino-4,4-difluorobutylamino)pyrimidine-5-carboxamide], the IC50 fell in the range of 100 to 1000 nM.
For `Cc1cccc(Nc2nc(N[C@H](C)C3(N)CC3)ncc2C(N)=O)c1` [Example 145, (R)-2-(1-(1-aminocyclopropyl)ethylamino)-4-(m-tolylamino)pyrimidine-5-carboxamide], the IC50 fell in the range of 1 to 10 nM.
